Patent US7476670B2, “Purine derivatives, method for preparing, pharmaceutical compositions and novel use” (Aventis Pharma S.A., priority 2003, dated 2009)
Values after ≈ are worked out from the molar mass of the structure shown. Structures can show the parent of a compound that is named as a salt. Where two headings read alike, the source gives them in different places.

Columns and labels:
Candida albicans = assay: Minimum inhibitory concentration in liquid medium, micro method (NCCLS M27-A); type: cell-based; settings: at least 80% inhibition of growth, read after 24-48 h at 37° C., RPMI 1640, read-out: MIC Candida albicans
Method: (§1) The assay is carried out in a final volume of 40 μl; all the reagents are prepared in a buffer: • 50 mM HEPES pH 7.5 • 0.03% triton X100 • 10 mM MgCl2 • 5% Glycerol • 1 mM DTT 10 μl of the 10-times concentrated inhibitor are added to 5 μl of enzyme (75 ng final concentration), and 5 μl of peptide (1 μM final concentration), then 2.5 μl of incubation buffer containing 40 μM ATP and 2.5 μl of radiolabeled ATP, [^33P]ATP (500 nCi), are added. After incubation for 15 minutes at ambient temperature, 10 μl of incubation buffer containing 192 nM of substrate. […] Reference method for broth dilution antifungal susceptibility testing of yeasts. Approved Standard M27-A. NCCLS, Villanova, Pa.); the minimum concentration with which a visible decrease is observed in the cloudiness of the cell growth (at least 80% compared to a control without product) is the Minimum Inhibitory Concentration (MIC) of the antifungal agent with respect to the strain tested.
(§2) RPMI 1640 medium (liquid) without L-glutamine is supplemented with L-glutamine (0.3 g/l or 10.5 ml of a solution at 200 mM) and buffered with 34.54 g/l (0.165 M) of morpholinepropanesulfonic acid (MOPS). The medium is sterilized by filtration. 100 μl of RPMI medium are distributed into each well of a 96-well plate. The appropriate volume. of the antifungal solution is distributed in the first column of the microplate and supplemented with 200 μl of medium. Doubling dilutions are made so as to establish a range of 11 concentrations in each line of the microplate. The 12th well of each row will serve as a growth control. The cell suspension is prepared from a culture (liquid or agar) or from a frozen vial, and is diluted in RPMI medium so as to obtain a cell suspension at 5×10^3−2×10^4 cells/ml. 100 μl of the cell suspension are distributed in the microplate. For all species of Candida, the MIC is read after 24-48 h, and for Cryptococcus and Aspergillus after 48-72 h, of incubation at 37° C. in a normal atmosphere. The MIC is read by visual reading, determining the well which contains the lowest dose of antifungal agent which causes at least 80% inhibition of the growth of the fungus.

Candida glabrata = assay: as above; type: cell-based; settings: Nakaseomyces glabratus; at least 80% inhibition of growth, read after 24-48 h at 37° C., RPMI 1640; read-out: MIC Candida glabrata
Method: as §1, §2

Abl kinase = assay: Assay for inhibition of Abl activity; type: biochemical; settings: fluorescence polarization
Method: The inhibition of the kinase activity is determined by fluorescence polarization, the Abl kinase phosphorylates a peptide detected by adding an anti-phosphopeptide antibody coupled to a fluorescent label.
The assay is carried out in a final volume of 50 μl; all the reagents are prepared in a buffer: • 20 mM Hepes/NaOH pH 7.5 • 5 mM MgCl2 • 100 μM Na2VO4 • 1 mM DTT • 100 μM EDTA/NaOH • 0.01% Brij35 5 μl of the 10-times concentrated inhibitor are added to 25 μl of enzyme (1000 U/ml final concentration), (Calbiochem ref 102555). After incubation for 5 minutes at ambient temperature, 10 μL of PolyGT (400 ng/ml final concentration) and 10 μL of ATP (5 μM final concentration) are added. The detection is carried out after incubation for 15 minutes at 30° C. • Results obtained expressed as percentage inhibition at 20 μM • Example 24 100% • Example 2 100% • Example 32 100% 6) Assay for Inhibition of ZAP Kinase Activity

SRC kinase = molecular target: T1, SRC kinase (Homo sapiens, UniProt P12931); assay: Assay for inhibition of SRC kinase activity; type: biochemical; settings: fluorescence polarization, read-out: percentage inhibition at 20 μM
T1 construct: purchased Upstate Biotechnology 14-117
Method: 2) Assay for Inhibition of SRC Kinase Activity
The inhibition is determined by fluorescence polarization, the […] kinase phosphorylates a peptide detected by adding an anti-phosphopeptide antibody coupled to a fluorescent label.
The assay is carried out in a final volume of 50 μl; all the reagents are prepared in a buffer: • 25 mM HEPES/NaOH pH 7.6 • 5 mM MgCl2 • 2 mM MnCl2 • 50 μM Na2VO4 5 μl of the 10-times concentrated inhibitor are added to 25 μl of enzyme (12 U/ml final concentration), (Upstate Biotechnology ref 14-117). After incubation for 5 minutes at ambient temperature, 10 μl of PolyGluTyr 4/1 (150 ng/ml final concentration) and 10 μl of ATP (5 μM final concentration) are added. The detection is carried out after incubation for 20 minutes at ambient temperature. • Results obtained expressed as percentage inhibition at 20 μM • Example 8 98% • Example 15 99% • Example 20 99% • Example 24 99% • Example 27 95% • Example 30 99% • Example 32 100% • Example 38 95% 3) Assay for Inhibition of CDK2 Activity

JNK3 kinase = JNK3 kinase (Homo sapiens, UniProt P53779); assay: Assay for inhibition of JNK3 activity; type: biochemical; settings: fluorescence polarization, ATP 6 μM; read-out: IC50s expressed as micromolar
Method: The inhibition of the kinase activity is determined by fluorescence polarization, the JNK3 kinase phosphorylates a peptide detected by adding an anti-phosphopeptide antibody coupled to a fluorescent label.
The assay is carried out in a final volume of 30 μl; all the reagents are prepared in a buffer: • 50 mM HEPES pH 7.5 • 0.03% triton X100 • 10 mM MgCl2 • 5% Glycerol • 1 mM DTT 10 μl of the 10-times concentrated inhibitor are added to 5 μl of enzyme (40 ng final concentration), and 5 μl of incubation buffer containing 100 ng of substrate and 10 μl of ATP (6 μM final concentration) are added.

GSK3beta = GSK3beta (Homo sapiens, UniProt P49841); assay: Assay for inhibition of GSK3beta activity; type: biochemical; settings: [33P]ATP; read-out: IC50s expressed as micromolar
Method: (§3) The inhibition of the kinase activity is determined by measuring the phosphorylation of its substrate peptide.
The assay is carried out in a final volume of 40 μl; all the reagents are prepared in a buffer: • 50 mM HEPES pH 7.5 • 0.03% triton X100 • 10 mM MgCl2 • 5% Glycerol • 1 mM DTT 10 μl of the 10-times concentrated inhibitor are added to 5 μl of enzyme (20 ng final concentration), and 5 μl of peptide (1 μM final concentration) then 2.5 μof incubation buffer containing 16 μM ATP and 2.5 μl of radiolabeled ATP, [^33P]ATP (50 nCi) are added. After incubation for 15 minutes at ambient temperature, 10 μl of incubation buffer containing 1 μM of substrate.

PLK1 = PLK1 (Homo sapiens, UniProt P53350); assay: Assay for inhibition of PLK1 activity; type: biochemical; settings: [33P]ATP; read-out: IC50s expressed as micromolar
Method: as §3, §1

CaCiv1 = CaCiv1 (Candida albicans, UniProt A0A1D8PH53); assay: Assay for inhibition of CIV-CDK (CIV1) activity; type: biochemical
Description: 1) Assay for Inhibition of CIV-CDK (CIV1) Activity
a) Preparation of the Reagents

[1] = molecular target: Cyclin Dependent kinase 2 (CDK2) (Homo sapiens, UniProt P24941); assay: Assay for inhibition of CDK2 activity; type: biochemical; settings: [33P]ATP, read-out: percentage inhibition at 20 μM
Method: The inhibition of the kinase activity of Cyclin Dependent kinase 2 (CDK2) is determined by measuring the phosphorylation of its substrate peptide.
The assay is carried out in a final volume of 50 μl.
The incubation buffer as follows:
• 50 mM Hepes/NaOH pH 7.5 • 10 mM MgCl2 • 1 mM DTT 5 μl of the 10-times concentrated inhibitor are added to 25 μl of incubation buffer containing 0.8 U/μL final concentration of the enzyme; 10 μL of incubation buffer containing 0.0025 mg/ml of peptide substrate are then added and, finally, 10 μL of incubation buffer containing 2 mM ATP and radiolabeled ATP, [^33P]ATP (0.25 μCi), are added. The reaction is stopped after incubation for 10 minutes at 37° C. • Results obtained expressed as percentage inhibition at 20 μM • Example 2 97% • Example 27 97% • Example 30 99% 4) Assay for Inhibition of CDK1 Activity

ZAP kinase = molecular target: T2, ZAP kinase (Homo sapiens, UniProt P43403); assay: Assay for inhibition of ZAP kinase activity; type: biochemical; settings: fluorescence polarization, read-out: percentage inhibition at 20 μM
T2 construct: purchased Panvera P2782
T2 sequence (P43403 1-619): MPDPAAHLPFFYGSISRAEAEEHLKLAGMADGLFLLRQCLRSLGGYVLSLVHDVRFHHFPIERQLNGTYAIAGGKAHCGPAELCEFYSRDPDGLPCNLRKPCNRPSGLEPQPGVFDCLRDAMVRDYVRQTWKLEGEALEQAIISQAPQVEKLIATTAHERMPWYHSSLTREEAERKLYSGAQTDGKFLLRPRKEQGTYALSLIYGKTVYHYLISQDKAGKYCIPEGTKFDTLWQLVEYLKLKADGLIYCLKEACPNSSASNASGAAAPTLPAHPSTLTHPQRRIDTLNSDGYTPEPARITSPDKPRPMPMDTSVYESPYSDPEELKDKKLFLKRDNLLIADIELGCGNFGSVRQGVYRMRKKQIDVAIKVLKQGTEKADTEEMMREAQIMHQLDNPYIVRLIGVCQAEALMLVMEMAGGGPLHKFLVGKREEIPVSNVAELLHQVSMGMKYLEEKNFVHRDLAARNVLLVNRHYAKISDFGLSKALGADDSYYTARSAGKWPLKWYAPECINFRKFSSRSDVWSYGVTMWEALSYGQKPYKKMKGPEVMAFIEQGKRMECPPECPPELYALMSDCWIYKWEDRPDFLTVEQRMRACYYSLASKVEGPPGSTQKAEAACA
Method: The inhibition of the kinase activity is determined by fluorescence polarization, the ZAP kinase phosphorylates a peptide detected by adding an anti-phosphopeptide antibody coupled to a fluorescent label.
The assay is carried out in a final volume of 50 μl; all the reagents are prepared in a buffer: • 20 mM Tris/HCl pH 7.7 • 7 mM MnCl2 • 50 μM Na2VO4 5 μl of the 10-times concentrated inhibitor are added to 25 μl of enzyme (0.7 μg/ml final concentration) (Panvera ref P2782). After incubation for 5 minutes at ambient temperature, 10 μl of PolyGT (300 ng/ml final concentration) and 10 μl of ATP (0.25 μM final concentration) are added. The detection is carried out after incubation for 15 minutes at ambient temperature. • Results obtained expressed as percentage inhibition at 20 μM • Example 8 98% • Example 20 95% • Example 24 96% 7) Assay for Inhibition of Casein Kinase II Activity

[2] = CaCiv1 with Cdk2 substrate, [33P]ATP, 30 min ambient temperature, read-out: IC50 as micromolar

T1 sequence (P12931 whole entry): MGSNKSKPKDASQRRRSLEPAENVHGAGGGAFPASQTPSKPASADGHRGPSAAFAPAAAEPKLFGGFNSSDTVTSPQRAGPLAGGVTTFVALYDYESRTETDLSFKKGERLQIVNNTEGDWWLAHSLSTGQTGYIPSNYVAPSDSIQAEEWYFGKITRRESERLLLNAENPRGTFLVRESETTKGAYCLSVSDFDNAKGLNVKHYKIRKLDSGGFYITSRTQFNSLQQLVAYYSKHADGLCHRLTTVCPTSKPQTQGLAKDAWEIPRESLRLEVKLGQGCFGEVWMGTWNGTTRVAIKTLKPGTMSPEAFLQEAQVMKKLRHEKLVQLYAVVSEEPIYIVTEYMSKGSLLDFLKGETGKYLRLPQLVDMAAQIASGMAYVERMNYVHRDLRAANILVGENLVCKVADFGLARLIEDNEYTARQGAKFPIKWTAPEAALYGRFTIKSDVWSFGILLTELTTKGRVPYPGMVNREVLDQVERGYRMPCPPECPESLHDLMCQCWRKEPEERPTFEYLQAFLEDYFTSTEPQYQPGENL
JNK3 kinase, sequence (P53779 whole entry): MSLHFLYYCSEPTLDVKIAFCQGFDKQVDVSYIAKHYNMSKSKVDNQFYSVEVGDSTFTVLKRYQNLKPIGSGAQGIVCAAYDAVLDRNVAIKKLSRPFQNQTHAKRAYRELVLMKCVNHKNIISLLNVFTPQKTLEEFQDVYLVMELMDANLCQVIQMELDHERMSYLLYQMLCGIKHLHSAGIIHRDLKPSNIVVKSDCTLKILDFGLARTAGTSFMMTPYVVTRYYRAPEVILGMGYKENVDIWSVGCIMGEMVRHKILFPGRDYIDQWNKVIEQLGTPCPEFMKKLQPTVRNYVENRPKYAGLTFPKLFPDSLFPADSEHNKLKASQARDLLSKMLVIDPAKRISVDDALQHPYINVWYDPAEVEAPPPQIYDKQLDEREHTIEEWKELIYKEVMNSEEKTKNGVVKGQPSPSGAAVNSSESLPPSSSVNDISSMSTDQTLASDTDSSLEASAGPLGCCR
CaCiv1, sequence (A0A1D8PH53 entry or part of it): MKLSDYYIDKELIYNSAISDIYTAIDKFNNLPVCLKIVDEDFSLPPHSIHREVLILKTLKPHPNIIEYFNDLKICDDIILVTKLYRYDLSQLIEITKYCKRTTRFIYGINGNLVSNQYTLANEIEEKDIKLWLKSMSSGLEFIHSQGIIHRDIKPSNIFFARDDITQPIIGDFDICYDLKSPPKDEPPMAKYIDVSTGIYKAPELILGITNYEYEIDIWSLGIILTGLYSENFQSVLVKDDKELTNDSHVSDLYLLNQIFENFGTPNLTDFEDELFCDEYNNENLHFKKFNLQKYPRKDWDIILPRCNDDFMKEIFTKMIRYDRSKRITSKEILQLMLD
GSK3beta, sequence (P49841 whole entry, species assumed): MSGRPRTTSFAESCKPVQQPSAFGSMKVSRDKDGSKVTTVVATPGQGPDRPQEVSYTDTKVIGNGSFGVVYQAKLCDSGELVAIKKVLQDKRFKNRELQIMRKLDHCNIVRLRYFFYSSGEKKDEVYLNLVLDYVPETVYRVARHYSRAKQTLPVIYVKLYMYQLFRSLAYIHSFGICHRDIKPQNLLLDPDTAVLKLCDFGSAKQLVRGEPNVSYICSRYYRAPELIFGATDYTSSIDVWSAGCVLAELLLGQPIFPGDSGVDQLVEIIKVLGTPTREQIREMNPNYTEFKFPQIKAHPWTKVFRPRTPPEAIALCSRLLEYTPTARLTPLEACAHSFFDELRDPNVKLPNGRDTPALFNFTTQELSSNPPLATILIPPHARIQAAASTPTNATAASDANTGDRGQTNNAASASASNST
PLK1, sequence (P53350 whole entry, species assumed): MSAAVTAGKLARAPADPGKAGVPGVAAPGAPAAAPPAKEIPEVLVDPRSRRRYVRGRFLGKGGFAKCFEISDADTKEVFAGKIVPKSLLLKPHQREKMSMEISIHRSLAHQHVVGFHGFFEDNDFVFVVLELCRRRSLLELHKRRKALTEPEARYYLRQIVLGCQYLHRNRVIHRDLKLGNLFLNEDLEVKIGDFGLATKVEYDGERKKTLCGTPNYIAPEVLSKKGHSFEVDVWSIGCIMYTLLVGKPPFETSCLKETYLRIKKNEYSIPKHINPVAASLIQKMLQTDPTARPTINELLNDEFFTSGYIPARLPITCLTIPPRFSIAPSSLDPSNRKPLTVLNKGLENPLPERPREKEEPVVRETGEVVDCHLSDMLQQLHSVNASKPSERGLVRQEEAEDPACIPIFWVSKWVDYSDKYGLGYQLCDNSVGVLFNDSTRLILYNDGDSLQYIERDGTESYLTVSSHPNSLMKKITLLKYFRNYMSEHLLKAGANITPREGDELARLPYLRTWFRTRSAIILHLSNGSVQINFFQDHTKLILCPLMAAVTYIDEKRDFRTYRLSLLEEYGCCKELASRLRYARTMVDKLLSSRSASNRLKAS

| percentage inhibition at 20 μM (Abl kinase) [%] | inhibition at 20 µM (SRC kinase) [%] | IC50 (JNK3 kinase) [µM] | IC50 (CaCiv1; [2]) [µM] | SMILES | also measured |
| --- | --- | --- | --- | --- | --- |
| 100 | 100 | – | – | N[C@H]1CC[C@H](Nc2nc(N3CCc4cc(Br)ccc43)c3nc[nH]c3n2)CC1 [Example 32, Trans-N-[6-(5-bromo-2,3-dihydro-1H-indol-1-yl)-9H-purin-2-yl]-1,4-cyclohexanediamine] | MIC (Candida albicans): 64 µg/mL (≈ 149 µM); MIC (Candida glabrata): 64 µg/mL (≈ 149 µM) |
| – | – | 0.31 | – | CC1Cc2ccccc2N1c1nc(N[C@H]2CC[C@H](N)CC2)nc2[nH]cnc12 (stereo partly shown) [Example 26, dihydrochloride] | IC50 (GSK3beta): 1.3 µM |
| – | – | – | 3.9 | OCC(CO)Nc1nc(-n2cnc3ccccc32)c2nc[nH]c2n1 [Example 18, 2-[[6-(1H-benzimidazol-1-yl)-9H-purin-2-yl]amino]-1,3-propanediol] | IC50 (PLK1): 0.16 µM |
| – | 95 | 0.29 | 4.3 | CC[C@@H](CO)Nc1nc(-n2cnc3ccccc32)c2nc[nH]c2n1 [Example 27, (2S)-2-[[6-(1H-benzimidazol-1-yl)-9H-purin-2-yl]amino]-1-butanol] | inhibition at 20 µM [1]: 97% |
| – | – | – | 1.1 | Cc1cc2ncn(-c3nc(N[C@H]4CC[C@H](N)CC4)nc4[nH]cnc34)c2cc1C [Example 5, Trans-N-[6-(5,6-dimethyl-1H-benzimidazol-1-yl)-9H-purin-2-yl]-1,4-cyclohexanediamine] | MIC (Candida albicans): 64 µg/mL (≈ 170 µM); MIC (Candida glabrata): 64 µg/mL (≈ 170 µM) |
| 100 | 99 | – | 0.39 | O[C@H]1CC[C@H](Nc2nc(-n3cnc4ccccc43)c3nc[nH]c3n2)CC1 [Example 24, Trans-4-[[6-(1H-benzimidazol-1-yl)-9H-purin-2-yl]amino]cyclohexanol] | inhibition at 20 µM (ZAP kinase): 96% |
| – | 95 | 0.42 | – | N[C@H]1CC[C@H](Nc2nc(N3CCc4cc(F)ccc43)c3nc[nH]c3n2)CC1 [Example 38, Trans-N-[6-(5-fluoro-2,3-dihydro-1H-indol-1-yl)-9H-purin-2-yl]-1,4-cyclohexanediamine dihydrochloride] | – |

| SMILES | percentage inhibition at 20 μM (Abl kinase) [%] | inhibition at 20 µM (SRC kinase) [%] | IC50 (JNK3 kinase) [µM] | IC50 (CaCiv1; [2]) [µM] | also measured |
| --- | --- | --- | --- | --- | --- |
| COc1ccc2c(c1)ncn2-c1nc(N[C@H]2CC[C@H](N)CC2)nc2[nH]cnc12 [Example 15, Trans-N-[6-(5-methoxy-1H-benzimidazol-1-yl)-9H-purin-2-yl]-1,4-cyclohexanediamine dihydrochloride] | – | 99 | 0.5 | – | IC50 (CaCiv1): 0.3 µM |
| Cl.Cl.N[C@H]1CC[C@H](Nc2nc(-n3cnc4ccccc43)c3nc[nH]c3n2)CC1 [Example 2, Trans-N-[6-(1H-benzimidazol-1-yl)-9H-purin-2-yl]-1,4-cyclohexanediamine dihydrochloride] | 100 | – | – | – | inhibition at 20 µM [1]: 97%; IC50 (CaCiv1): 0.5 µM; IC50 (GSK3beta): 0.6 µM |
